According to paper PMC9519446, “Discovery of an Orally Active Benzoxaborole Prodrug Effective in the Treatment of Chagas Disease in Non-human Primates” (Nature microbiology, 2022):
Read-outs that look alike come from different tables or passages of the source.

Key:
[1] = tested on: T. cruzi CL strain in Vero cells; experiment: RNA-seq: parasite mRNA relative to host cell (Vero) mRNA; assay type: cell-based, Trypanosoma cruzi
Procedure: The drug concentration used for treatment was set at 5 times the IC50. Samples were collected at several time points for RNA extraction as previously described. rRNA-depleted RNA library construction and RNA sequencing using Illumina Nextseq 75PE was carried out by Georgia Genomics and Bioinformatics Core (GGBC, University of Georgia, Georgia). […] The mapping rate was quantified by HTseq v0.6.1 [51].

[2] = tested on: T. cruzi extracellular amastigotes; experiment: Extracellular amastigote assay (ATPlite luminescence, 48 hours); assay type: cell-based; details: Trypanosoma cruzi
Procedure: The in vitro anti-T. cruzi amastiogote activity assay was performed and optimized based on the protocol described previously. The change in tdTomato fluorescence intensity was determined as a measurement of growth over 72 hours of culture. For assaying drug effects on extracellular amastigotes, trypomastigotes were collected from infected Vero cell cultures and converted in acidic media as previously described. Amastigotes (50,000/well) were incubated with 2-fold serial dilutions of compounds for 48 hours. The ATP production was used as an indication of growth in this case, and was measured by ATPlite Luminescence ATP Detection Assay System (PerkinElmer). Both fluorescence and luminescence were read using a BioTek Synergy Hybrid Multi-Mode reader equipped with the software Gene5 v 2.0 (BioTek). The dose-response curve was generated by […] analysis with GraphPad Prism v9.4.0 (GraphPad Software).

Question: How did the “RNA-seq reads mapped to African green monkey” value ([1]; 0hpt) turn out when `Cc1c(C(=O)NC(C(=O)OCc2ccc(F)c(F)c2)C(C)C)ccc2c1B(O)OC2` (stereo not drawn) [AN14353] was run?
Answer: 60

Question: And the “RNA-seq reads mapped to T.cruzi CL Brener” value ([1]; 0hpt)?
Answer: 14

Question: And the RNA-seq reads unmapped ([1]; 0hpt)?
Answer: 26

Question: And the “RNA-seq reads mapped to African green monkey” value ([1]; 6hpt)?
Answer: 63

Question: What about the “RNA-seq reads mapped to T.cruzi CL Brener” value ([1]; 6hpt) of the same compound?
Answer: 5

Question: What about the RNA-seq reads unmapped ([1]; 6hpt) of the same compound?
Answer: 32

Question: What about the “RNA-seq reads mapped to African green monkey” value ([1]; 12hpt) of the same compound?
Answer: 62

Question: And the “RNA-seq reads mapped to T.cruzi CL Brener” value ([1]; 12hpt)?
Answer: 2

Question: And the RNA-seq reads unmapped ([1]; 12hpt)?
Answer: 35

Question: And the “RNA-seq reads mapped to African green monkey” value ([1]; 24hpt)?
Answer: 77

Question: What about the “RNA-seq reads mapped to T.cruzi CL Brener” value ([1]; 24hpt) of the same compound?
Answer: 1

Question: What about the RNA-seq reads unmapped ([1]; 24hpt) of the same compound?
Answer: 22

Question: What about the “parasite mRNA relative to host cell mRNA” value ([1]; T. cruzi-infected Vero cells, 30 nM AN14353 or 5 uM benznidazole, from 6 hrs) of the same compound?
Answer: marked and continuing reduction in parasite mRNA

Question: And the IC50 ([2]; WT extracellular amastigotes, Fig. 2c, read-out: WT IC50)?
Answer: 0.5 nM

Question: And the IC50 ([2]; extracellular amastigotes, Fig. 2a, read-out: Extracellular IC50)?
Answer: 0.1 nM
